Type in all cases: functional, cell-based
One test deals with A549. Kind of test: Cytotoxicity against human A549 cells after 48 hrs by WST-8 assay. The following applies: A549, 48 h. For orientation: Tetrazolium assays rely on reduction of a dye to a coloured formazan, in cell work by metabolically active cells.
The next test relates to MCF7. Kind of test: Cytotoxicity against human MCF7 cells after 48 hrs by WST-8 assay. The following applies: MCF7, 48 h.
The subject of another test is PC-3. Kind of test: Cytotoxicity against human PC3 cells after 48 hrs by WST-8 assay. The following applies: PC-3, 48 h.
The subject of another test is NB-4. Kind of test: Cytotoxicity against human NB4 cells after 48 hrs by WST-8 assay. Particulars: NB-4, 48 h.
For a further test, the system named is SH-SY5Y. Kind of test: Cytotoxicity against human SH-SY5Y cells after 48 hrs by WST-8 assay.

One may read the IC50 as the concentration that inhibits the measured activity by half. Lower therefore signals greater potency.

As to `CC(=O)CC[C@H]1C(=O)[C@@]23[C@H](O)C[C@@H]4[C@@](C)(CO)CCC[C@@]4(C)[C@@H]2C(=O)[C@H](O)[C@H]1[C@H]3O`, the IC50 with A549, in the test with MCF7, in the test on PC-3, in the test on NB-4 and with SH-SY5Y was over 10 µM each time.

In the case of `COc1cc([C@@H]2c3cc4c(cc3[C@@H](O[C@@H]3O[C@@H]5CO[C@@H](C)O[C@H]5[C@H](O)[C@H]3O)[C@H]3COC(=O)[C@H]23)OCO4)cc(OC)c1O` [ETOPOSIDE], the IC50 in the test with A549 came to 1.7 µM; in the test on PC-3 it was 13.6 µM; in the test on NB-4 it was 1.3 µM; in the test with SH-SY5Y, 1.7 µM.

On to `C=C1C(=O)[C@@]23[C@H](O)C[C@@H]4C(C)(C)CC[C@H](O)[C@@]4(C)[C@@H]2C[C@H](O)[C@@H]1[C@H]3O` [EXCISANIN A], for which the IC50 with A549 is over 10 µM; in the test with MCF7, over 10 µM; with PC-3, over 10 µM; in the test with NB-4, 8.2 µM; in the test with SH-SY5Y, over 10 µM.

As to `C=C1C(=O)[C@@]23CC[C@@H]4[C@@](C)(CO)CC[C@H](O)[C@@]4(C)[C@@H]2CC[C@@H]1[C@H]3O` [EXCISANIN K], the IC50 is over 10 µM in the test with A549; over 10 µM in the test with MCF7; over 10 µM in the test on PC-3; 8.7 µM in the test with NB-4; over 10 µM in the test on SH-SY5Y.

In the case of `C=C1C(=O)[C@@]23[C@H](O)C[C@@H]4[C@@](C)(CO)CCC[C@@]4(C)[C@@H]2C(=O)C[C@@H]1[C@H]3O` [HENRYINE A], the IC50 in the test with A549 was over 10 µM; with MCF7, over 10 µM; in the test with PC-3, 7 µM; in the test on NB-4, 2.3 µM; in the test with SH-SY5Y it was 5.1 µM.

Turning to `CC1(C)CCC[C@]2(C)[C@@H]1C[C@@H](O)[C@@]13C(=O)[C@@]4(CO4)[C@@H]([C@H]1O)[C@@H](O)C(=O)[C@@H]23` [ISOSCOPARIN D], the IC50 with A549, with MCF7, in the test with PC-3, in the test with NB-4 and in the test with SH-SY5Y was over 10 µM throughout.

Regarding `C=C1[C@@H]2[C@@H](O)[C@H](O)[C@H]3[C@]4(C)CCCC(C)(C)[C@H]4CC(=O)[C@@]3([C@@H]1OC(C)=O)[C@@H]2O` [ISOSCOPARIN F], the IC50 was 9.9 µM in the test on A549; 3.9 µM in the test with MCF7; over 10 µM in the test with PC-3; 2.2 µM with NB-4; 9.2 µM in the test on SH-SY5Y.

Turning to `C=C1[C@@H](O)[C@@]23[C@H](O)C[C@@H]4[C@@](C)(CO)CCC[C@@]4(C)[C@@H]2C(=O)C[C@@H]1[C@H]3O` [ISOSCOPARIN H], the IC50 in the test on A549, in the test with MCF7, in the test with PC-3, with NB-4 and in the test on SH-SY5Y was over 10 µM each time.

In the case of `C=C1C(=O)[C@@]23[C@H](O)C[C@H]4[C@@](C)(CCC[C@]4(C)C=O)[C@@H]2[C@@H](O)C[C@@H]1[C@H]3O` [ISOSCOPARIN I], the half-maximal inhibitory concentration (IC50) in the test with A549 is over 10 µM; in the test with MCF7 it was over 10 µM; in the test with PC-3, over 10 µM; in the test on NB-4, 4.4 µM; with SH-SY5Y, over 10 µM.

In the case of `C=C1C(=O)[C@@]23[C@H](O)C[C@@H]4C(C)(C)CCC[C@@]4(C)[C@@H]2C[C@H](O)[C@@H]1[C@H]3O` [ISOSCOPARIN L], the IC50 in the test on A549 is 6.4 µM; in the test on MCF7, 2.2 µM; in the test with PC-3, over 10 µM; in the test with NB-4, 0.7 µM; in the test on SH-SY5Y it was 6.8 µM.

In the case of `C=C1C(=O)[C@@]23[C@H](O)C[C@@H]4C(C)(C)CC[C@H](O)[C@@]4(C)[C@@H]2CC[C@@H]1[C@H]3O` [KAMEBANIN], the IC50 in the test on A549 was 7.3 µM; in the test on MCF7, 8.4 µM; with PC-3, over 10 µM; in the test with NB-4, 0.9 µM; in the test with SH-SY5Y, 8.9 µM.

Consider `C=C1[C@@H](O)[C@]23[C@H](O)[C@H]1CC[C@H]2[C@@]12CO[C@@]3(O)[C@@H](O)[C@@H]1C(C)(C)CC[C@@H]2OC(C)=O` [LASIOKAURINOL], for which the IC50 in the test with A549, with MCF7, in the test with PC-3, with NB-4 and in the test with SH-SY5Y was over 10 µM throughout.

Consider `CC(=O)O[C@H]1C(=O)[C@@]2(C)[C@H]([C@H](OC(=O)c3ccccc3)[C@]3(O)C[C@H](OC(=O)[C@H](O)[C@@H](NC(=O)c4ccccc4)c4ccccc4)C(C)=C1C3(C)C)[C@]1(OC(C)=O)CO[C@@H]1C[C@@H]2O` [PACLITAXEL], for which the 50% inhibitory concentration (IC50) was found to be 0.1 µM with A549; 0.1 µM with MCF7; 0.2 µM in the test on PC-3; 0.1 µM in the test on NB-4; 0.2 µM in the test with SH-SY5Y.

Turning to `C=C1C(=O)[C@@]23[C@H](O)C[C@@H]4C(C)(C)CCC[C@@]4(C)[C@@H]2C(=O)[C@H](O)[C@@H]1[C@H]3O` [PHYLLOSTACHYSIN D], the IC50 in the test on A549 was over 10 µM; in the test with MCF7, over 10 µM; with PC-3, over 10 µM; in the test with NB-4 it was 0.3 µM; in the test on SH-SY5Y it was over 10 µM.

In the case of `C=C1C(=O)[C@@]23CC[C@@H]4C(C)(C)CC[C@H](O)[C@@]4(C)[C@@H]2[C@@H](O)C[C@@H]1[C@H]3O` [PHYLLOSTACHYSIN H], the IC50 in the test on A549, in the test with MCF7, with PC-3, in the test with NB-4 and in the test on SH-SY5Y was over 10 µM each time.

In the case of `C=C1C(=O)[C@@]23[C@H](O)C[C@@H]4C(C)(C)CC[C@H](O)[C@@]4(C)[C@@H]2[C@@H](O)C[C@@H]1[C@H]3O` [RABDOINFLEXIN B], the IC50 in the test on A549, in the test with MCF7, in the test with PC-3, in the test on NB-4 and in the test with SH-SY5Y was over 10 µM throughout.

Take `C=C1C(=O)[C@@]23[C@H](O)C[C@@H]4C(C)(C)CCC[C@@]4(C)[C@@H]2[C@@H](O)[C@H](O)[C@@H]1[C@H]3OC(C)=O` [RABDOKUNMIN A]: the IC50 in the test on A549 was 2.8 µM; in the test on MCF7, over 10 µM; in the test with PC-3 it was over 10 µM; in the test on NB-4, 2.7 µM; with SH-SY5Y it was over 10 µM.

With `C=C1C(=O)[C@@]23[C@H](O)C[C@@H]4[C@@](C)(CO)CCC[C@@]4(C)[C@@H]2C[C@H](O)[C@@H]1[C@H]3O` [RABDOKUNMIN C], the IC50 in the test on A549, with MCF7, with PC-3, in the test on NB-4 and in the test on SH-SY5Y was over 10 µM throughout.

With `C=C1C(=O)[C@@]23[C@H](O)C[C@@H]4[C@@](C)(CO)CCC[C@@]4(C)[C@@H]2[C@@H](O)C[C@@H]1[C@H]3O` [RABDOKUNMIN D], the IC50 with A549, in the test on MCF7, with PC-3, in the test on NB-4 and with SH-SY5Y was over 10 µM in each case.

Take `C=C1C(=O)[C@@]23[C@H](O)C[C@@H]4[C@@](C)(CO)CCC[C@@]4(C)[C@@H]2C(=O)[C@H](O)[C@@H]1[C@H]3O` [RABDOLOXIN A]: the IC50 in the test with A549, in the test with MCF7, in the test on PC-3, in the test with NB-4 and in the test with SH-SY5Y was over 10 µM in each case.

Consider `C=C1C(=O)[C@@]23[C@H](O)C[C@@H]4C(C)(C)CCC[C@@]4(C)[C@@H]2[C@@H](O)[C@H](O)[C@@H]1[C@H]3O` [RABDOLOXIN B], for which the IC50 in the test with A549 was 1.7 µM; in the test with MCF7, over 10 µM; with PC-3, over 10 µM; in the test on NB-4, 2.8 µM; in the test on SH-SY5Y, over 10 µM.

The values are drawn from ChEMBL document CHEMBL1151478, “ent-Kaurane diterpenoids from Isodon scoparius” (J Nat Prod, 2009).
